In ChEMBL document CHEMBL4507268 (2021):

Assays:
Conditions in all cases: Compound concentration 1000.0 nM
[1] = target: T1, Phosphorylase b kinase regulatory subunit alpha, liver isoform (Homo sapiens) (UniProt P46019)
T1 sequence (whole entry): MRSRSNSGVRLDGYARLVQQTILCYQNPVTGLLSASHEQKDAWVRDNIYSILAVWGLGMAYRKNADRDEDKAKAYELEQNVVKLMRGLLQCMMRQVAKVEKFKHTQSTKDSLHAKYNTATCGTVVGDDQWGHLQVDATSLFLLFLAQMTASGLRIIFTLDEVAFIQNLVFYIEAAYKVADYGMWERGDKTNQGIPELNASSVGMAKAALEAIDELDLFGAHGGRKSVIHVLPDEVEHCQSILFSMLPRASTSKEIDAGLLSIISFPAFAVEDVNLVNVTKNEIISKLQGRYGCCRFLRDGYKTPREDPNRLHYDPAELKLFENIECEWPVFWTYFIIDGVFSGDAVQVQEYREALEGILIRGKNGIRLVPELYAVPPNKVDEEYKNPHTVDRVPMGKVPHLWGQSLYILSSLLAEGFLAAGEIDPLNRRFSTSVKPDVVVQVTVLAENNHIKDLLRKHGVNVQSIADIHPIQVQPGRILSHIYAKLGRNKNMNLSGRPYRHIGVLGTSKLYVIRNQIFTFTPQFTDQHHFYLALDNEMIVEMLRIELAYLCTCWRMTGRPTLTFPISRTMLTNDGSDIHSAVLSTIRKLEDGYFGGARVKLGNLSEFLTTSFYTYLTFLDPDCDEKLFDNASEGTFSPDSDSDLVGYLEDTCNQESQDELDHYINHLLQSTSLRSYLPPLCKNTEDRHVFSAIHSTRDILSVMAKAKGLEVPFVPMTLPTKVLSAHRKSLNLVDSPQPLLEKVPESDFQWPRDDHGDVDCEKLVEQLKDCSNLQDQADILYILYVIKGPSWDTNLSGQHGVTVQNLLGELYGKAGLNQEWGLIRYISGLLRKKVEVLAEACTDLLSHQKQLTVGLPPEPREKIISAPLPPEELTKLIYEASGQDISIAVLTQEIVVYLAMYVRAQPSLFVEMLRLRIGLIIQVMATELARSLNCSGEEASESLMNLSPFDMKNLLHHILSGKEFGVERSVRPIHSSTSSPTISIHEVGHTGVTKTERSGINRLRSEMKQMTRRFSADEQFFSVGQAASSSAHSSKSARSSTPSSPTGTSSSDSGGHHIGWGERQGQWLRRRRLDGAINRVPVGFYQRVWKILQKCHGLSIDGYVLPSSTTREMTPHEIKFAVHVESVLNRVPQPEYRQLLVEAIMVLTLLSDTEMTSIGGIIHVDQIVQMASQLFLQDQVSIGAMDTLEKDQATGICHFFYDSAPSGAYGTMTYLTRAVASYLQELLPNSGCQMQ

[2] = target: T2, Myosin light chain kinase (Homo sapiens) (UniProt Q32MK0)
T2 sequence (whole entry): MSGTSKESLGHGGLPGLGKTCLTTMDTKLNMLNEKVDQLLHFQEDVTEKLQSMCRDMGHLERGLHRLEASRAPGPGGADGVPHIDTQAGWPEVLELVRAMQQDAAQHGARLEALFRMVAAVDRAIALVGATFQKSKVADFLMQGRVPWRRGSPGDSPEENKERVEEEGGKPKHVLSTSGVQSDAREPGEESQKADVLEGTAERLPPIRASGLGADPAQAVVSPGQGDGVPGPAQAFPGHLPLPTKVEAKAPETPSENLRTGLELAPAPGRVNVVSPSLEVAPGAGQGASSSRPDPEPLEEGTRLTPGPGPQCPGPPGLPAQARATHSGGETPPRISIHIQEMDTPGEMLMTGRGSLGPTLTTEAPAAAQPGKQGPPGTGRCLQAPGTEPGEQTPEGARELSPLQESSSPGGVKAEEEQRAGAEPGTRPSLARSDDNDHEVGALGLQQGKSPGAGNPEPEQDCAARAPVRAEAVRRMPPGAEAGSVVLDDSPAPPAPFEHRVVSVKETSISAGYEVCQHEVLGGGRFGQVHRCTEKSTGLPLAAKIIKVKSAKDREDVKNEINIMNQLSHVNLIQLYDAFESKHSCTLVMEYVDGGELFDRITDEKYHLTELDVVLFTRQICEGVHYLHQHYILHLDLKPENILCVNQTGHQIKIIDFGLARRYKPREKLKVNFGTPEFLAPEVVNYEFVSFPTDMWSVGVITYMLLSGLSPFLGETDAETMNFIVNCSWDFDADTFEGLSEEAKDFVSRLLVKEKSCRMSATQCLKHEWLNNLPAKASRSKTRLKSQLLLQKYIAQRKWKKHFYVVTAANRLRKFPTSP

[3] = target: Tyrosine-protein kinase CSK (Homo sapiens) (UniProt P41240)
Tyrosine-protein kinase CSK (Homo sapiens), sequence (P41240 2-450 limits assumed): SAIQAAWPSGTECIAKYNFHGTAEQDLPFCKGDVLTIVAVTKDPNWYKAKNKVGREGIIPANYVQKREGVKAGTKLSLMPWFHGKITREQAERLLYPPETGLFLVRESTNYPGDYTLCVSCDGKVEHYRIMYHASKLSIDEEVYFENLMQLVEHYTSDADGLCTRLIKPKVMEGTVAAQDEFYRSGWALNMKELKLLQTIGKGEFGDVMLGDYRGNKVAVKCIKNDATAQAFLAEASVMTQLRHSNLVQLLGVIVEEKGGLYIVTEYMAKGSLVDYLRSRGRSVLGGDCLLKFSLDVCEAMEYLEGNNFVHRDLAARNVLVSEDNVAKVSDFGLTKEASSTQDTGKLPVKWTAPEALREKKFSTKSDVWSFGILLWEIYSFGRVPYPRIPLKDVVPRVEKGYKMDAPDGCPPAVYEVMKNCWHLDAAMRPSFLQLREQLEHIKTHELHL

[4] = target: MAP kinase-interacting serine/threonine-protein kinase 1 (Homo sapiens) (UniProt Q9BUB5)
MAP kinase-interacting serine/threonine-protein kinase 1 (Homo sapiens), sequence (Q9BUB5 whole entry, looked up): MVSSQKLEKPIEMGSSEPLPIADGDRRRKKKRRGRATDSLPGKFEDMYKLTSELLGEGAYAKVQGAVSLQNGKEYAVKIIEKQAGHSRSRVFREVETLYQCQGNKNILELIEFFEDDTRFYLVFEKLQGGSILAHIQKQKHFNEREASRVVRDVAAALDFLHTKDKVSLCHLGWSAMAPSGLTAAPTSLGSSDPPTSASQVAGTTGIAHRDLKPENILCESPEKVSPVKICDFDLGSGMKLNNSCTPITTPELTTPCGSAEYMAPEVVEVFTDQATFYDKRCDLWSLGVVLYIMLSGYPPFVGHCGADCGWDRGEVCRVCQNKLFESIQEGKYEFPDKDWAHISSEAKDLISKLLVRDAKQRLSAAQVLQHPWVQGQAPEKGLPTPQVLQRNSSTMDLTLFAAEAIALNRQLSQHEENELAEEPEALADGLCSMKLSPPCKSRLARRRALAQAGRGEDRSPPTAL

[5] = target: Fibroblast growth factor receptor 2 (Homo sapiens) (UniProt P21802)
Fibroblast growth factor receptor 2 (Homo sapiens), sequence (P21802 22-821 limits assumed): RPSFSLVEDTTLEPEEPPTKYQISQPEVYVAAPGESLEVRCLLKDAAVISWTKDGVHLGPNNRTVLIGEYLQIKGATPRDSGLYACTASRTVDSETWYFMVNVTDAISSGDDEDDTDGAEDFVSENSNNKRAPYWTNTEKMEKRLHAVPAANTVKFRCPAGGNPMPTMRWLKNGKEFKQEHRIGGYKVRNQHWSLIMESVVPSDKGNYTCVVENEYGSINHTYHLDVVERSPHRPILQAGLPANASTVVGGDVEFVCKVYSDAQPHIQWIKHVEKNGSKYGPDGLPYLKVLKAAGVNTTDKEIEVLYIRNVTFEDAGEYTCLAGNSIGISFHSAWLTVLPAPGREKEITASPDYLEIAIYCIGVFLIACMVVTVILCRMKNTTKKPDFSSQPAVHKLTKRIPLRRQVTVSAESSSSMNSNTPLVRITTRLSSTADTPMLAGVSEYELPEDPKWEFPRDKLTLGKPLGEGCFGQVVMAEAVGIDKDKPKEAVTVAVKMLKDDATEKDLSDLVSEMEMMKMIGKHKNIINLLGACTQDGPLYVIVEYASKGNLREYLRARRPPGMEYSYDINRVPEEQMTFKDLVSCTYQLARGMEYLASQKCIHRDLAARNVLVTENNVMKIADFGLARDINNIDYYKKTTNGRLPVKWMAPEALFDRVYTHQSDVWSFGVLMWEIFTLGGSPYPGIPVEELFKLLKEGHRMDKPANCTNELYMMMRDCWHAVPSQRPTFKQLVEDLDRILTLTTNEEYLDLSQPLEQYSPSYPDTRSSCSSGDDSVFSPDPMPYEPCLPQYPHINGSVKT

Measured: residual activity

Cc1nc(C2CCN(C(=O)c3ccc(OC(F)(F)F)cc3N)CC2)c2ncc(N3CCN(C)CC3)cc2n1 [BAY-693]
inactive: [1] 100% | [2] 100% | [3] 100% | [4] 100% | [5] 100%

CN1CCN(c2cnc3c(C4CCN(C(=O)c5ccc(OC(F)(F)F)cc5N)CC4)ncnc3c2)CC1 [BAY-885]
inactive: [1] 100% | [2] 82% | [3] 100% | [4] 100% | [5] 100%
